The target of the assay is hNav1.7 (Homo sapiens, UniProt Q15858). The assay is described as follows: cell-based. The class given is cell-based. To be noted: for IC50: Table 12, PatchXpress, tonic block, read-out: PX hNav1.7 Tonic IC50; for Nav1.4/Nav1.7 / Nav1.5/Nav1.7: ratio of PX tonic IC50 values, Table 11.
hNav1.7, sequence (Q15858 whole entry): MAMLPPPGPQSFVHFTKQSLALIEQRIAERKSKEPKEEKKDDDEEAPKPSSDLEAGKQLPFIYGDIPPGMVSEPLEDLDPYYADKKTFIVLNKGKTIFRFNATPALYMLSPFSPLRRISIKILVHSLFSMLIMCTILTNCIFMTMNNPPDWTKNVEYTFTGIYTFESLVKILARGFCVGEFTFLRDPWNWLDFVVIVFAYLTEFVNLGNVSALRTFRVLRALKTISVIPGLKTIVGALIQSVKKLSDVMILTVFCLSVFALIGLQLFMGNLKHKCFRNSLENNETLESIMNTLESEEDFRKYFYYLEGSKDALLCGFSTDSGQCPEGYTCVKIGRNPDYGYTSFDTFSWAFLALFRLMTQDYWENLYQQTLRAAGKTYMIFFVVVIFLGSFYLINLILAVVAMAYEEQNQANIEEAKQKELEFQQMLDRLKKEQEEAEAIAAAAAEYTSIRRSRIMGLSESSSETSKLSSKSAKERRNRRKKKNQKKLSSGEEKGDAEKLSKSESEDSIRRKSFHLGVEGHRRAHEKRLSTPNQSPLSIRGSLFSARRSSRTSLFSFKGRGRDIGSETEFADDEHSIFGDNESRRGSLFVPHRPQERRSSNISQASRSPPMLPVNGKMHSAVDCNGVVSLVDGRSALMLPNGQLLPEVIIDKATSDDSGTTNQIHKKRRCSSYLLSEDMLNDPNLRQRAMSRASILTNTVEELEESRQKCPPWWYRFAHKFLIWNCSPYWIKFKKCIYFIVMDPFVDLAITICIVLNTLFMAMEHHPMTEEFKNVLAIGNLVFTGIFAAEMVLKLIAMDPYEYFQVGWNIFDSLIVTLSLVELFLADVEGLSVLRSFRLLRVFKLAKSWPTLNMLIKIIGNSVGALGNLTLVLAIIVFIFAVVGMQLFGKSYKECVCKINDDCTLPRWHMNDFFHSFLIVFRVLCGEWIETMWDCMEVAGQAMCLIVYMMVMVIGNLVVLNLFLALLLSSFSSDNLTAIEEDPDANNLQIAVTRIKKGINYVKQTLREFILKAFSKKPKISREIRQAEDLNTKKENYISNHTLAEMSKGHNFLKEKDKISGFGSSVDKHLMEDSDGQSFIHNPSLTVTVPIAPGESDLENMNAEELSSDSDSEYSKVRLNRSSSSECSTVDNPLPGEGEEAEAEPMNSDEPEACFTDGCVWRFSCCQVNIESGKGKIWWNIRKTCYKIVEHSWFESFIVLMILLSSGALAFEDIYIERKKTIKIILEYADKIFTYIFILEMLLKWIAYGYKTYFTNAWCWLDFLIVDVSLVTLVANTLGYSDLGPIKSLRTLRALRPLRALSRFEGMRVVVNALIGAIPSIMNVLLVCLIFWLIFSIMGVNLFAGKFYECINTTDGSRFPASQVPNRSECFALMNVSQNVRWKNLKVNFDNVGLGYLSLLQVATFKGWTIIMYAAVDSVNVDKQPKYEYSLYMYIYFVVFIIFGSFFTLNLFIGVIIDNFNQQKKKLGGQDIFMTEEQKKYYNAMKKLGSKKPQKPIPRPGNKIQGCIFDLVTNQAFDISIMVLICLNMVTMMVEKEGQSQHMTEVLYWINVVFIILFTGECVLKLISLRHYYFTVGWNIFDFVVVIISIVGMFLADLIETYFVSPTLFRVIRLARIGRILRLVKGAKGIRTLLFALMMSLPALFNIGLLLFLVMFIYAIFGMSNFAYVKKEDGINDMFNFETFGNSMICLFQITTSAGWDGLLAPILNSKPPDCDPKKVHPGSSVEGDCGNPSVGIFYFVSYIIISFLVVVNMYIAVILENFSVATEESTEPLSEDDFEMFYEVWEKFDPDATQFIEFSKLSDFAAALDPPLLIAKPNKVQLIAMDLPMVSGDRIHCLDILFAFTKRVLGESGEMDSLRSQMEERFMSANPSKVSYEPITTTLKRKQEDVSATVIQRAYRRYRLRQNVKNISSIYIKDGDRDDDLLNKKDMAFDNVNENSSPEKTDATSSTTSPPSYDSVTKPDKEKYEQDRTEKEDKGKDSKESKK

By IC50 is commonly meant the midpoint of a concentration-inhibition curve. For the compound `C#CC[C@H](N)C(=O)N[C@@H](Cc1ccc(O)cc1)C(=O)N[C@H]1CSSC[C@@H]2NC(=O)[C@@H]3CSSC[C@@H](C(=O)N[C@@H](CCCNC(=N)N)C(=O)N[C@@H](CCCCN)C(=O)N[C@@H](CCC(=O)O)C(=O)N[C@H](C(N)=O)[C@@H](C)CC)NC(=O)[C@H](Cc4c[nH]c5ccccc45)NC(=O)[C@H](CC(C)C)NC(=O)[C@H](CCCCN)NC(=O)[C@H](CSSC[C@H](NC(=O)[C@H]([C@@H](C)O)NC(=O)[C@H](Cc4c[nH]c5ccccc45)NC(=O)[C@H](CCCC)NC(=O)[C@H](Cc4c[nH]c5ccc(Br)cc45)NC(=O)[C@H](CCCCN)NC(=O)[C@H](CCC(N)=O)NC1=O)C(=O)N[C@@H](CC(=O)O)C(=O)N[C@@H](CO)C(=O)N[C@@H](CCCCN)C(=O)N[C@@H](CCCNC(=N)N)C(=O)N[C@@H](C)C(=O)N3)NC(=O)[C@H](CCCNC(=N)N)NC(=O)[C@H](CC(C)C)NC(=O)CNC(=O)[C@H](CCC(=O)O)NC2=O` [compound 845], the IC50 is 0.0535 µM.

For the compound `CC[C@H](C)[C@H](NC(=O)[C@H](Cc1ccc(O)cc1)NC(=O)[C@H](CCCCN)NC(=O)[C@H](CCCNC(=N)N)NC(=O)[C@@H]1CSSC[C@@H]2NC(=O)[C@H](C)NC(=O)[C@H](CCCNC(=N)N)NC(=O)[C@H](CCCCN)NC(=O)[C@H](CO)NC(=O)[C@H](CC(=O)O)NC(=O)[C@@H]3CSSC[C@H](NC(=O)[C@H](CCC(=O)O)NC(=O)[C@H](CC(C)C)NC(=O)CNC(=O)[C@H](CCC(=O)O)NC(=O)[C@H](CSSC[C@H](NC(=O)[C@@H](N)Cc4ccc(O)cc4)C(=O)N[C@@H](CCC(N)=O)C(=O)N[C@@H](CCCCN)C(=O)N[C@@H](Cc4c[nH]c5ccccc45)C(=O)N[C@@H](CCSC)C(=O)N[C@@H](Cc4c[nH]c5ccccc45)C(=O)N[C@@H]([C@@H](C)O)C(=O)N3)NC2=O)C(=O)N[C@@H](CCCCN)C(=O)N[C@@H](CC(C)C)C(=O)N[C@@H](Cc2cccc3ccccc23)C(=O)N1)C(N)=O` [compound 218], the Nav1.4/Nav1.7 is recorded as 434 and the Nav1.5/Nav1.7 turned out to be 833.

Turning to `CCCC[C@@H]1NC(=O)[C@H](Cc2c[nH]c3ccccc23)NC(=O)[C@H](CCCCN)NC(=O)[C@H](CCC(N)=O)NC(=O)[C@@H](NC(=O)[C@H](Cc2ccc(O)cc2)NC(=O)[C@@H](N)CC#N)CSSC[C@@H]2NC(=O)[C@@H]3CSSC[C@@H](C(=O)N[C@@H](CCCNC(=N)N)C(=O)N[C@@H](CCCCN)C(=O)N[C@H](C(=O)N[C@@H](Cc4c[nH]c5ccccc45)C(N)=O)[C@@H](C)CC)NC(=O)[C@H](Cc4c[nH]c5ccccc45)NC(=O)[C@H](CC(C)C)NC(=O)[C@H](CCCCN)NC(=O)[C@H](CSSC[C@H](NC(=O)[C@H]([C@@H](C)O)NC(=O)[C@H](Cc4c[nH]c5ccccc45)NC1=O)C(=O)N[C@@H](CC(=O)O)C(=O)N[C@@H](CO)C(=O)N[C@@H](CCCCN)C(=O)N[C@@H](CCCNC(=N)N)C(=O)N[C@@H](C)C(=O)N3)NC(=O)[C@H](CCCCNC(=O)CCOCCOCCOCCOCCOCCOCCOCCOCCOCCOCCOCCOCCN)NC(=O)[C@H](CC(C)C)NC(=O)CNC(=O)[C@H](CCC(=O)O)NC2=O` [compound 476], the Nav1.4/Nav1.7 turned out to be 13 and the Nav1.5/Nav1.7 is 71.

`C#CC[C@H](N)C(=O)N[C@@H](Cc1ccc(O)cc1)C(=O)N[C@H]1CSSC[C@@H]2NC(=O)[C@@H]3CSSC[C@@H](C(=O)N[C@@H](CCCNC(=N)N)C(=O)N[C@@H](CCCCN)C(=O)N[C@@H](Cc4c[nH]cn4)C(=O)N[C@H](C(N)=O)[C@@H](C)CC)NC(=O)[C@H](Cc4c[nH]c5ccccc45)NC(=O)[C@H](CC(C)C)NC(=O)[C@H](CCCCN)NC(=O)[C@H](CSSC[C@H](NC(=O)[C@H]([C@@H](C)O)NC(=O)[C@H](Cc4c[nH]c5ccccc45)NC(=O)[C@H](CCCC)NC(=O)[C@H](Cc4c[nH]c5ccccc45)NC(=O)[C@H](CCCCN)NC(=O)[C@H](CCC(N)=O)NC1=O)C(=O)N[C@@H](CC(=O)O)C(=O)N[C@@H](CO)C(=O)N[C@@H](CCCCN)C(=O)N[C@@H](CCCNC(=N)N)C(=O)N[C@@H](C)C(=O)N3)NC(=O)[C@H](CCCNC(=N)N)NC(=O)[C@H](CC(C)C)NC(=O)CNC(=O)[C@H](CCC(=O)O)NC2=O` [compound 652]: the IC50 came out at 0.000371 µM.

In the case of `C#CC[C@H](N)C(=O)N[C@@H](Cc1ccc(O)cc1)C(=O)N[C@H]1CSSC[C@@H]2NC(=O)[C@@H]3CSSC[C@@H](C(=O)N[C@@H](CCCNC(=N)N)C(=O)N[C@@H](CCCCN)C(=O)N[C@@H](CCCC)C(=O)N[C@H](C(N)=O)[C@@H](C)CC)NC(=O)[C@H](Cc4c[nH]c5ccccc45)NC(=O)[C@H](CC(C)C)NC(=O)[C@H](CCCCN)NC(=O)[C@H](CSSC[C@H](NC(=O)[C@H]([C@@H](C)O)NC(=O)[C@H](Cc4c[nH]c5ccccc45)NC(=O)[C@H](CCCC)NC(=O)[C@H](Cc4c[nH]c5ccccc45)NC(=O)[C@H](CCCCN)NC(=O)[C@H](CCC(N)=O)NC1=O)C(=O)N[C@@H](CC(=O)O)C(=O)N[C@@H](CO)C(=O)N[C@@H](CCCCN)C(=O)N[C@@H](CCCNC(=N)N)C(=O)N[C@@H](C)C(=O)N3)NC(=O)[C@H](CCCNC(=N)N)NC(=O)[C@H](CC(C)C)NC(=O)CNC(=O)[C@H](CCC(=O)O)NC2=O` [compound 664], the IC50 came out at 0.000339 µM.

Regarding `C#CC[C@@H]1NC(=O)[C@@H]2CSSC[C@H](NC(=O)[C@H](Cc3ccc(O)cc3)NC(=O)[C@@H](N)CC#N)C(=O)N[C@@H](CCC(N)=O)C(=O)N[C@@H](CCCCN)C(=O)N[C@@H](Cc3c[nH]c4ccccc34)C(=O)N[C@@H](CCCC)C(=O)N[C@@H](Cc3c[nH]c4ccccc34)C(=O)N[C@@H]([C@@H](C)O)C(=O)N[C@H]3CSSC[C@H](NC(=O)[C@H](CCCNC(=N)N)NC(=O)[C@H](CC(C)C)NC(=O)CNC1=O)C(=O)N[C@@H](CCCCN)C(=O)N[C@@H](CC(C)C)C(=O)N[C@@H](Cc1c[nH]c4c(Br)cccc14)C(=O)N[C@H](C(=O)N[C@@H](CCCNC(=N)N)C(=O)N[C@@H](CCCCN)C(=O)N[C@@H](CCC(=O)O)C(=O)N[C@H](C(N)=O)[C@@H](C)CC)CSSC[C@H](NC(=O)[C@H](C)NC(=O)[C@H](CCCNC(=N)N)NC(=O)[C@H](CCCCN)NC(=O)[C@H](CO)NC(=O)[C@H](CC(=O)O)NC3=O)C(=O)N2` [compound 875], the 50% inhibitory concentration (IC50) came out at 0.0253 µM.

Consider `CCCC[C@@H]1NC(=O)[C@H](Cc2c[nH]c3ccccc23)NC(=O)[C@H](CCCCN)NC(=O)[C@H](CCC(N)=O)NC(=O)[C@@H](NC(=O)[C@H](Cc2ccc(O)cc2)NC(=O)[C@@H](N)CCC)CSSC[C@@H]2NC(=O)[C@@H]3CSSC[C@@H](C(=O)N[C@@H](CCCNC(=N)N)C(=O)N[C@@H](CCCCN)C(=O)N[C@H](C(=O)N[C@H](C(N)=O)[C@@H](C)CC)[C@@H](C)CC)NC(=O)[C@H](Cc4c[nH]c5ccccc45)NC(=O)[C@H](CC(C)C)NC(=O)[C@H](CCCCN)NC(=O)[C@H](CSSC[C@H](NC(=O)[C@H]([C@@H](C)O)NC(=O)[C@H](Cc4c[nH]c5ccccc45)NC1=O)C(=O)N[C@@H](CC(=O)O)C(=O)N[C@@H](CO)C(=O)N[C@@H](CCCCN)C(=O)N[C@@H](CCCNC(=N)N)C(=O)N[C@@H](C)C(=O)N3)NC(=O)[C@H](CCCNC(=N)N)NC(=O)[C@H](CC(C)C)NC(=O)CNC(=O)[C@H](CCC(=O)O)NC2=O` [compound 369], for which the Nav1.4/Nav1.7 was 552 and the Nav1.5/Nav1.7 was determined as 23418.

`C#CC[C@H](N)C(=O)N[C@@H](Cc1ccc(O)cc1)C(=O)N[C@H]1CSSC[C@@H]2NC(=O)[C@@H]3CSSC[C@@H](C(=O)N[C@@H](CCCNC(=N)N)C(=O)N[C@@H](CCCCN)C(=O)N[C@@H](CCC(=O)O)C(=O)N[C@H](C(N)=O)[C@@H](C)CC)NC(=O)[C@H](Cc4c[nH]c5ccccc45)NC(=O)[C@H](CC(C)C)NC(=O)[C@H](CCCCN)NC(=O)[C@H](CSSC[C@H](NC(=O)[C@H]([C@@H](C)O)NC(=O)[C@H](Cc4c[nH]c5ccccc45)NC(=O)[C@H](CCCC)NC(=O)[C@H](Cc4c[nH]c5ccccc45)NC(=O)[C@H](CCCCN)NC(=O)[C@H](CCC(N)=O)NC1=O)C(=O)N[C@@H](CC(=O)O)C(=O)N[C@@H](CO)C(=O)N[C@@H](CCCCN)C(=O)N[C@@H](CCCNC(=N)N)C(=O)N[C@@H](C)C(=O)N3)NC(=O)[C@H](Cc1ccccc1)NC(=O)[C@H](CC(C)C)NC(=O)CNC(=O)[C@H](CCC(=O)O)NC2=O` [compound 686]: the concentration for half-maximal inhibition (IC50) was 0.0103 µM.

In the case of `C#CC[C@H](N)C(=O)N[C@@H](Cc1ccc(O)cc1)C(=O)N[C@H]1CSSC[C@@H]2NC(=O)[C@@H]3CSSC[C@@H](C(=O)N[C@@H](CCCNC(=N)N)C(=O)N[C@@H](CCCCN)C(=O)N[C@@H](CCC(=O)O)C(=O)N[C@H](C(N)=O)[C@@H](C)CC)NC(=O)[C@H](Cc4c[nH]c5ccccc45)NC(=O)[C@H](CC(C)C)NC(=O)[C@H](CCCCN)NC(=O)[C@H](CSSC[C@H](NC(=O)[C@H]([C@@H](C)O)NC(=O)[C@H](Cc4ccc5ccccc5c4)NC(=O)[C@H](CCCC)NC(=O)[C@H](Cc4c[nH]c5ccccc45)NC(=O)[C@H](CCCCN)NC(=O)[C@H](CCC(N)=O)NC1=O)C(=O)N[C@@H](CC(=O)O)C(=O)N[C@@H](CO)C(=O)N[C@@H](CCCCN)C(=O)N[C@@H](CCCNC(=N)N)C(=O)N[C@@H](C)C(=O)N3)NC(=O)[C@H](CCCNC(=N)N)NC(=O)[C@H](CC(C)C)NC(=O)CNC(=O)[C@H](CCC(=O)O)NC2=O` [compound 847], the IC50 amounted to 0.471 µM.

On to `C#CC[C@@H]1NC(=O)[C@@H]2CSSC[C@H](NC(=O)[C@H](Cc3ccc(O)cc3)NC(=O)[C@@H](N)CC#N)C(=O)N[C@@H](CCC(N)=O)C(=O)N[C@@H](CCCCN)C(=O)N[C@@H](Cc3c[nH]c4ccccc34)C(=O)N[C@@H](CCCC)C(=O)N[C@@H](Cc3c[nH]c4ccccc34)C(=O)N[C@@H]([C@@H](C)O)C(=O)N[C@H]3CSSC[C@H](NC(=O)[C@H](CCCNC(=N)N)NC(=O)[C@H](CC(C)C)NC(=O)CNC1=O)C(=O)N[C@@H](CCCCN)C(=O)N[C@@H](CC(C)C)C(=O)N[C@@H](Cc1c[nH]c4cc(C)ccc14)C(=O)N[C@H](C(=O)N[C@@H](CCCNC(=N)N)C(=O)N[C@@H](CCCCN)C(=O)N[C@@H](CCC(=O)O)C(=O)N[C@H](C(N)=O)[C@@H](C)CC)CSSC[C@H](NC(=O)[C@H](C)NC(=O)[C@H](CCCNC(=N)N)NC(=O)[C@H](CCCCN)NC(=O)[C@H](CO)NC(=O)[C@H](CC(=O)O)NC3=O)C(=O)N2` [compound 874], for which the IC50 came out at 0.014 µM.

These data come from US10344060B2 (priority 2013, dated 2019).
